# In patent US9708311B2, “Benzimidazole derivatives as EP4 antagonists” (BAYER PHARMA AKTIENGESELLSCHAFT, priority 2012, dated 2017):
# Molecular target: human EP4 receptor (Homo sapiens (Human), UniProt P35408)
# Test: Test for antagonism of the human EP4 receptor signal (cAMP HTRF)
# Type: cell-based
# Conditions: cells expressing hEP4, PGE2 at EC80 (0.4 nM), cAMP TR-FRET; read-out: Antagonism hEP4 IC50
# Summary of the method: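 Antagonism of PGE2-stimulated cAMP formation in hEP4-R cells with IBMX present. After lysis, cAMP measured by competitive TR-FRET (Eu cryptate anti-cAMP antibody vs cAMP-d2), 20 min at room temperature. Read-out is the 665/620 nm emission ratio; antagonism appears as restored FRET signal.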
# Sequence of human EP4 receptor (P35408 whole entry): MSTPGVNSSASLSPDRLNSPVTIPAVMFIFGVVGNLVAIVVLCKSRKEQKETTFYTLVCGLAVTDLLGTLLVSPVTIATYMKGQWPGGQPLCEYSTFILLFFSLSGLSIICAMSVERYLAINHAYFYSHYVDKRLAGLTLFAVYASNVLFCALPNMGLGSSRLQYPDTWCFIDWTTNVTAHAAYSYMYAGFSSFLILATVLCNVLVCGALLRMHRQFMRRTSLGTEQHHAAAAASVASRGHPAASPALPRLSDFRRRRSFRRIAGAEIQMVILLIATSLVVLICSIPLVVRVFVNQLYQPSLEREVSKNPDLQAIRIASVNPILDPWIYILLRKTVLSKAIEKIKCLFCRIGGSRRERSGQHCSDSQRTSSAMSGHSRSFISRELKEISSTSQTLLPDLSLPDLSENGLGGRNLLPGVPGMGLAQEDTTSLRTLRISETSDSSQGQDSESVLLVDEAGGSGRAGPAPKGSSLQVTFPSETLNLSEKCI
row,SMILES,IC50
1,"CCOC(=O)c1ccc2c(c1)nc(-c1ccc3c(c1)c1ccccc1n3CCOC)n2CCOC [Example 97, Ethyl 1-(2-methoxyethyl)-2-[9-(2-methoxyethyl)-9H-carbazol-3-yl]-1H-benzimidazole-5-carboxylate]",412 nM
2,"CCn1c2ccccc2c2cc(-c3nc4cc(C#N)ccc4n3CCOC)ccc21 [Example 44, 2-(9-Ethyl-9H-carbazol-3-yl)-1-(2-methoxyethyl)-1H-benzimidazole-5-carbonitrile]",421 nM
3,"CCn1c2ccccc2c2cc(-c3nc4cc(C(=O)O)ccc4n3CC3CC3)nc(C)c21 [Example 131, 1-(Cyclopropylmethyl)-2-(9-ethyl-1-methyl-9H-beta-carbolin-3-yl)-1H-benzimidazole-5-carboxylic acid]",480 nM
4,"CCn1c2ccccc2c2cc(-c3nc4cc(C(=O)O)ccc4n3CCN3CCOCC3)ccc21 [Example 70, 2-(9-Ethyl-9H-carbazol-3-yl)-1-[2-(morpholin-4-yl)ethyl]-1H-benzimidazole-5-carboxylic acid]",2460 nM
5,"CCn1c2ccccc2c2cc(-c3nc4cc(C(=O)NC)ccc4n3CC3CC3)ccc21 [Example 24, 1-(Cyclopropylmethyl)-2-(9-ethyl-9H-carbazol-3-yl)-N-methyl-1H-benzimidazole-5-carboxamide]",338 nM
6,"CCn1c2ccccc2c2cc(-c3nc4cc(C(=O)N(C)C)ccc4n3CCOC)ccc21 [Example 83, 2-(9-Ethyl-9H-carbazol-3-yl)-1-(2-methoxyethyl)-N,N-dimethyl-1H-benzimidazole-5-carboxamide]",122 nM
7,"CCn1c2ccccc2c2cc(-c3nc4cc(S(N)(=O)=O)ccc4n3CCOC)ccc21 [Example 127, 2-(9-Ethyl-9H-carbazol-3-yl)-1-(2-methoxyethyl)-1H-benzimidazole-5-sulphonamide]",305 nM
8,"CCn1c2ccccc2c2cc(-c3nc4cc(C(=O)NC)ccc4n3CCN(C)C)ccc21 [Example 73, 1-[2-(Dimethylamino)ethyl]-2-(9-ethyl-9H-carbazol-3-yl)-N-methyl-1H-benzimidazole-5-carboxamide]",382 nM
9,"CCn1c2ccccc2c2cc(-c3nc4cc(C(=O)NS(=O)(=O)C5(C)CC5)ccc4n3CCOC)ccc21 [Example 40, 2-(9-Ethyl-9H-carbazol-3-yl)-1-(2-methoxyethyl)-N-[(1-methylcyclopropyl)sulphonyl]-1H-benzimidazole-5-carboxamide]",78.3 nM
10,"CCn1c2ccccc2c2cc(-c3nc4cc(C(=O)O)ccc4n3C[C@@H](O)COC)ccc21 [Example 134, 2-(9-Ethyl-9H-carbazol-3-yl)-1-[(2R)-2-hydroxy-3-methoxypropyl]-1H-benzimidazole-5-carboxylic acid]",136 nM
11,"CCOC(=O)c1ccc2c(c1)nc(-c1ccc3c(c1)c1ccccc1n3CC)n2CCCOC [Example 99, Ethyl 2-(9-ethyl-9H-carbazol-3-yl)-1-(3-methoxypropyl)-1H-benzimidazole-5-carboxylate]",1710 nM
12,"CCn1c(-c2ccc3c(c2)c2ccccc2n3CC)nc2cc(C(=O)OC)ccc21 [Example 95, Methyl 1-ethyl-2-(9-ethyl-9H-carbazol-3-yl)-1H-benzimidazole-5-carboxylate]",1030 nM
13,"CCn1c2ccccc2c2cc(-c3nc4cc(-n5ccnn5)ccc4n3C)ccc21 [Example 128, 9-Ethyl-3-[1-methyl-5-(1H-1,2,3-triazol-1-yl)-1H-benzimidazole-2-yl]-9H-carbazole]",111 nM
14,"CCn1c2ccccc2c2cc(-c3nc4cc(C(N)=O)ccc4n3CCOC)ccc21 [Example 82, 2-(9-Ethyl-9H-carbazol-3-yl)-1-(2-methoxyethyl)-1H-benzimidazole-5-carboxamide]",134 nM
15,"CCn1c2ccccc2c2cc(-c3nc4cc(C(=O)NCCN5CCOCC5)ccc4n3CCOC)ccc21 [Example 78, 2-(9-Ethyl-9H-carbazol-3-yl)-1-(2-methoxyethyl)-N-[2-(morpholin-4-yl)ethyl]-1H-benzimidazole-5-carboxamide]",74.3 nM
16,"CCn1c2ccccc2c2cc(-c3nc4cc(C(=O)NCC(F)(F)F)ccc4n3CC3CC3)ccc21 [Example 27, 1-(Cyclopropylmethyl)-2-(9-ethyl-9H-carbazol-3-yl)-N-(2,2,2-trifluoroethyl)-1H-benzimidazole-5-carboxamide]",117 nM
17,"C=CCn1c(-c2ccc3c(c2)c2ccccc2n3CC)nc2cc(C(=O)O)ccc21 [Example 2, 1-Allyl-2-(9-ethyl-9H-carbazol-3-yl)-1H-benzimidazole-5-carboxylic acid]",312 nM
18,"CCn1c2ccccc2c2cc(-c3nc4cc(S(=O)(=O)NC)ccc4n3C)ccc21 [Example 129, 2-(9-Ethyl-9H-carbazol-3-yl)-N,1-dimethyl-1H-benzimidazole-5-sulphonamide]",944 nM
19,"CCn1c2ccccc2c2cc(-c3nc4cc(C(=O)NS(=O)(=O)Cc5ccc(F)cc5)ccc4n3CCOC)ccc21 [Example 58, 2-(9-Ethyl-9H-carbazol-3-yl)-N-[(4-fluorobenzyl)sulphonyl]-1-(2-methoxyethyl)-1H-benzimidazole-5-carboxamide]",174 nM
20,"CCn1c2ccccc2c2cc(-c3nc4cc(C(=O)O)ccc4n3C[C@H](O)COC)ccc21 [Example 135, 2-(9-Ethyl-9H-carbazol-3-yl)-1-[(2S)-2-hydroxy-3-methoxypropyl]-1H-benzimidazole-5-carboxylic acid]",340 nM
21,"CCn1c2ccccc2c2cc(-c3nc4cc(C(=O)N(C)C)ccc4n3CC3CC3)ccc21 [Example 25, 1-(Cyclopropylmethyl)-2-(9-ethyl-9H-carbazol-3-yl)-N,N-dimethyl-1H-benzimidazole-5-carboxamide]",86.3 nM
22,"CCn1c2ccccc2c2cc(-c3nc4cc(C(=O)NC)ccc4n3CCOC)ccc21 [Example 41, 2-(9-Ethyl-9H-carbazol-3-yl)-1-(2-methoxyethyl)-N-methyl-1H-benzimidazole-5-carboxamide]",96.7 nM
23,"COCCn1c(-c2ccc3c(c2)c2ccccc2n3CCOC)nc2cc(C(=O)O)ccc21 [Example 98, 1-(2-Methoxyethyl)-2-[9-(2-methoxyethyl)-9H-carbazol-3-yl]-1H-benzimidazole-5-carboxylic acid]",112 nM
24,"CCn1c2ccccc2c2cc(-c3nc4cc(C(=O)OC)ccc4n3CC3CC3)ccc21 [Example 5, Methyl 1-(cyclopropylmethyl)-2-(9-ethyl-9H-carbazol-3-yl)-1H-benzimidazole-5-carboxylate]",404 nM
25,"CCn1c2ccccc2c2cc(-c3nc4cc(C(=O)OC)ccc4n3CCOC)ccc21 [Example 3, Methyl 2-(9-ethyl-9H-carbazol-3-yl)-1-(2-methoxyethyl)-1H-benzimidazole-5-carboxylate]",175 nM

# These reach a lower IC50. Values come first.
row,IC50,SMILES
1,64.3 nM,"CCn1c2ccccc2c2cc(-c3nc4c(C)c(C(=O)O)ccc4n3CCOC)ccc21 [Example 105, 2-(9-Ethyl-9H-carbazol-3-yl)-1-(2-methoxyethyl)-4-methyl-1H-benzimidazole-5-carboxylic acid]"
2,43.7 nM,"C#CCn1c2ccccc2c2cc(-c3nc4cc(C(=O)O)ccc4n3CCOC)ccc21 [Example 119, 1-(2-Methoxyethyl)-2-[9-(prop-2-yn-1-yl)-9H-carbazol-3-yl]-1H-benzimidazole-5-carboxylic acid]"
3,42.8 nM,"CCn1c2ccccc2c2cc(-c3nc4cc(C(=O)NCCOC)ccc4n3CCOC)ccc21 [Example 31, 2-(9-Ethyl-9H-carbazol-3-yl)-N,1-bis(2-methoxyethyl)-1H-benzimidazole-5-carboxamide]"
4,36.2 nM,"CCCn1c2ccccc2c2cc(-c3nc4cc(C(=O)O)ccc4n3CCOC)ccc21 [Example 118, 1-(2-Methoxyethyl)-2-(9-propyl-9H-carbazol-3-yl)-1H-benzimidazole-5-carboxylic acid]"
5,33.4 nM,"CCn1c2ccccc2c2cc(-c3nc4cc(C(=O)O)ccc4n3CC3CC3)cnc21 [Example 14, 1-(Cyclopropylmethyl)-2-(9-ethyl-9H-pyrido[2,3-b]indol-3-yl)-1H-benzimidazole-5-carboxylic acid]"
6,28.7 nM,"C=CCn1c2ccccc2c2cc(-c3nc4cc(C(=O)O)ccc4n3CC3CC3)ccc21 [Example 33, 2-(9-Allyl-9H-carbazol-3-yl)-1-(cyclopropylmethyl)-1H-benzimidazole-5-carboxylic acid]"
7,24.5 nM,"CCn1c2ccccc2c2cc(-c3nc4cc(C(=O)O)ccc4n3CC3CCO3)ccc21 (stereo not shown) [Example 132, 2-(9-Ethyl-9H-carbazol-3-yl)-1-(oxetan-2-ylmethyl)-1H-benzimidazole-5-carboxylic acid]"
8,22.2 nM,"CCn1c2ccc(-c3nc4cc(C(=O)O)ccc4n3CC3CC3)cc2c2cccnc21 [Example 116, 1-(Cyclopropylmethyl)-2-(9-ethyl-9H-pyrido[2,3-b]indol-6-yl)-1H-benzimidazole-5-carboxylic acid]"
9,22.1 nM,"CCn1c2ccccc2c2cc(-c3nc4cc(C(=O)O)ccc4n3CCC3CC3)ccc21 [Example 117, 1-(2-Cyclopropylethyl)-2-(9-ethyl-9H-carbazol-3-yl)-1H-benzimidazole-5-carboxylic acid]"
10,18 nM,"COCCn1c2ccccc2c2cc(-c3nc4cc(C(=O)O)ccc4n3CC3CC3)ccc21 [Example 13, 1-(Cyclopropylmethyl)-2-[9-(2-methoxyethyl)-9H-carbazol-3-yl]-1H-benzimidazole-5-carboxylic acid]"
11,17.6 nM,"CCn1c2ccccc2c2cc(-c3nc4cc(C(=O)NS(=O)(=O)c5ccccc5OC(F)(F)F)ccc4n3CCOC)ccc21 [Example 54, 2-(9-Ethyl-9H-carbazol-3-yl)-1-(2-methoxyethyl)-N-{[2-(trifluoromethoxy)phenyl]-sulphonyl}-1H-benzimidazole-5-carboxamide]"
12,16.1 nM,"CCn1c2ccccc2c2cc(-c3nc4cc(C(=O)NS(=O)(=O)CC(C)(C)C)ccc4n3CCOC)ccc21 [Example 66, N-[(2,2-Dimethylpropyl)sulphonyl]-2-(9-ethyl-9H-carbazol-3-yl)-1-(2-methoxyethyl)-1H-benzimidazole-5-carboxamide]"
